“And” between values parts separate entries of the source, which are not always exact repeats. Equal entries are not always repeated.
Assay: Tigecycline plasma PK after IV bolus in dogs
Type: in vivo, Beagle dogs
Conditions: for concentration at 10 min / concentration at 15 min / concentration at 20 min: Beagle
Protocol: Adult beagle dogs weighing approximately 9 to 15 kg were used in the study. […] Room temperature was set to be maintained between approximately 20±5° C. Relative humidity was monitored but not controlled.
TEKLAD™ Certified Canine Diet was provided once daily in amounts (˜400 grams) appropriate for the size and age of the animals. Tap water was available ad libitum via automatic watering device or water bowls.
Doses are expressed in terms of free net tigecycline content. […] Oral dosing of enteric-coated capsules was accomplished by administering them to the back of the dog's mouth, followed by a chase of 5 mL water to ensure swallowing.
Water was provided ad libitum. […] Subsequently, each group of animals was dosed based on the protocol, i.e. either IV, or PO by capsule.
Minocycline (VWR international) was used as an internal standard. Sample processing/clean-up of plasma samples was carried out offline by protein precipitation with acidified acetonitrile using 0.5% trifluoroacetic acid (TFA).
The HPLC system consisted of Shimadzu SIL-HTc HPLC system equipped with dual Shimadzu LC-10ADvp isopumps, a Shimadzu CTO-10ASvp column temperature controller and a Shimadzu SPD-10Avp variable wavelength detector. […] Mobile phase A consisted of 23 mM phosphate buffer pH 2.5 with 4 mM 1-octanesulfonic acid, while mobile phase B consisting of 90% acetonitrile, 10% water, with 2 mM 1-octanesulfonic acid. […] The total runtime was 18 minutes per sample. The mobile phase flow rate was 1.2 mL/min. Detection was performed using the SPD-10Avp variable wavelength detector set at 350 nm, with a sensitivity of 0.001 aufs.
The samples were then centrifuged under refrigeration at 13 k rpm for 5 minutes. The supernatant was taken and the liquid removed to dryness under nitrogen in a turbovap. The dried extract was reconstituted in 60 μL of mobile phase A and the suspension was further centrifuged at 5 k rpm for 5 minutes to pellet any insoluble matter. The resulting supernatant was then injected onto the LC.
The unknown concentration in dog plasma samples was determined by interpolation of the peak area ratios of analyte:internal standard versus the ratio of their nominal concentrations into the regression line obtained from calibration standards spiked in pooled dog plasma. No regression weighting was used for the calculations. […] The calibration curve covered the range of 0.05 μg/mL to 5 μg/mL.
It should be noted however, that when the method was transferred to an older HPLC system (equipped with a Shimadzu SCT-10Avp system controller and SIL-10A autoinjector), the time program was further altered such that the gradient went to 38% mobile phase B to account to system design changes. All other parameters remained unchanged.
Tigecycline PK parameters for individual dogs were calculated using non-compartmental analysis with PK Functions for Microsoft Excel.

[1] = 1 mg IV in PBS (0.08 mg/kg), SC427, individual dogs

Compound: CN(C)c1cc(NC(=O)CNC(C)(C)C)c(O)c2c1C[C@H]1C[C@H]3[C@H](N(C)C)C(O)=C(C(N)=O)C(=O)[C@@]3(O)C(O)=C1C2=O [Tigecycline]
- AUC(0-t) [1]: 61.40 ng·h/mL and 99.54 ng·h/mL
- Cmax [1]: 66.27 ng/mL and 85.18 ng/mL
- Tmax [1]: 5 min
- Tmax (1 mg IV in PBS (0.08 mg/kg), SC427, mean): 5 min
- Tmax (5 mg IV in PBS ([…]), SC431, individual dogs): 5 min
- Tmax (5 mg IV in PBS ([…]), SC431, mean): 5 min
- Tigecycline Plasma Concentration (5 min, 1 mg IV in PBS (0.08 mg/kg), SC427, individual dogs): 66.27 ng/mL and 85.18 ng/mL
- Tigecycline Plasma Concentration (10 min, 1 mg IV in PBS (0.08 mg/kg), SC427, individual dogs): 23.92 ng/mL and 33.00 ng/mL
- Tigecycline Plasma Concentration (15 min, 1 mg IV in PBS (0.08 mg/kg), SC427, individual dogs): 19.85 ng/mL and 20.60 ng/mL
- Tigecycline Plasma Concentration (20 min, 1 mg IV in PBS (0.08 mg/kg), SC427, individual dogs): 21.11 ng/mL and 29.60 ng/mL
- Tigecycline Plasma Concentration (30 min, 1 mg IV in PBS (0.08 mg/kg), SC427, individual dogs): 17.14 ng/mL and 13.86 ng/mL
- Tigecycline Plasma Concentration (40 min, 1 mg IV in PBS (0.08 mg/kg), SC427, individual dogs): 11.51 ng/mL and 21.58 ng/mL
- Tigecycline Plasma Concentration (60 min, 1 mg IV in PBS (0.08 mg/kg), SC427, individual dogs): 12.49 ng/mL and 14.50 ng/mL
- Tigecycline Plasma Concentration (90 min, 1 mg IV in PBS (0.08 mg/kg), SC427, individual dogs): 8.90 ng/mL and 13.98 ng/mL
- Tigecycline Plasma Concentration (120 min, 1 mg IV in PBS (0.08 mg/kg), SC427, individual dogs): 8.80 ng/mL and 12.96 ng/mL
- Tigecycline Plasma Concentration (360 min, 1 mg IV in PBS (0.08 mg/kg), SC427, individual dogs): 0.00 ng/mL (2×) and 3.45 ng/mL
- Cmax, Mean (IV bolus 1 mg (0.08 mg/kg), SC427): 79 ng/mL
- Tmax (IV, Study 1 (SC427), 1 mg (0.08 mg/kg), mean (% CV)): 5 (0) min
- concentration at 10 min (female, dog, plasma, intravenous, 1 mg, Tigecycline Plasma Concentration, 10 min, 1 mg IV in PBS (0.08 mg/kg), SC427, individual dogs): 38.8 ng/mL
- concentration at 10 min (female, dog, plasma, intravenous, 1 mg, Tigecycline Plasma Concentration, 10 min, 1 mg IV in PBS (0.08 mg/kg), SC427, mean): 31.9 ng/mL
- concentration at 15 min (female, dog, plasma, intravenous, 1 mg, Tigecycline Plasma Concentration, 15 min, 1 mg IV in PBS (0.08 mg/kg), SC427, individual dogs): 26.5 ng/mL
- concentration at 15 min (female, dog, plasma, intravenous, 1 mg, Tigecycline Plasma Concentration, 15 min, 1 mg IV in PBS (0.08 mg/kg), SC427, mean): 22.3 ng/mL
- concentration at 20 min (female, dog, plasma, intravenous, 1 mg, Tigecycline Plasma Concentration, 20 min, 1 mg IV in PBS (0.08 mg/kg), SC427, individual dogs): 27.7 ng/mL
- concentration at 20 min (female, dog, plasma, intravenous, 1 mg, Tigecycline Plasma Concentration, 20 min, 1 mg IV in PBS (0.08 mg/kg), SC427, mean): 26.1 ng/mL
- concentration at 5 min (female, beagle, dog, plasma, intravenous, 1 mg, Tigecycline Plasma Concentration, 5 min, 1 mg IV in PBS (0.08 mg/kg), SC427, individual dogs): 86 ng/mL
- concentration at 5 min (female, beagle, dog, plasma, intravenous, 1 mg, Tigecycline Plasma Concentration, 5 min, 1 mg IV in PBS (0.08 mg/kg), SC427, mean): 79.1 ng/mL
- concentration at 30 min (female, beagle, dog, plasma, intravenous, 1 mg, Tigecycline Plasma Concentration, 30 min, 1 mg IV in PBS (0.08 mg/kg), SC427, individual dogs): 17.6 ng/mL
- concentration at 30 min (female, beagle, dog, plasma, intravenous, 1 mg, Tigecycline Plasma Concentration, 30 min, 1 mg IV in PBS (0.08 mg/kg), SC427, mean): 16.2 ng/mL
- concentration at 40 min (female, beagle, dog, plasma, intravenous, 1 mg, Tigecycline Plasma Concentration, 40 min, 1 mg IV in PBS (0.08 mg/kg), SC427, individual dogs): 14.3 ng/mL
- concentration at 40 min (female, beagle, dog, plasma, intravenous, 1 mg, Tigecycline Plasma Concentration, 40 min, 1 mg IV in PBS (0.08 mg/kg), SC427, mean): 15.8 ng/mL
- concentration at 60 min (female, beagle, dog, plasma, intravenous, 1 mg, Tigecycline Plasma Concentration, 60 min, 1 mg IV in PBS (0.08 mg/kg), SC427, individual dogs): 13.5 ng/mL
- concentration at 60 min (female, beagle, dog, plasma, intravenous, 1 mg, Tigecycline Plasma Concentration, 60 min, 1 mg IV in PBS (0.08 mg/kg), SC427, mean): 13.5 ng/mL
- concentration at 90 min (female, beagle, dog, plasma, intravenous, 1 mg, Tigecycline Plasma Concentration, 90 min, 1 mg IV in PBS (0.08 mg/kg), SC427, individual dogs): 11.2 ng/mL
- concentration at 90 min (female, beagle, dog, plasma, intravenous, 1 mg, Tigecycline Plasma Concentration, 90 min, 1 mg IV in PBS (0.08 mg/kg), SC427, mean): 11.4 ng/mL
- concentration at 120 min (female, beagle, dog, plasma, intravenous, 1 mg, Tigecycline Plasma Concentration, 120 min, 1 mg IV in PBS (0.08 mg/kg), SC427, individual dogs): 11.6 ng/mL

Reference: patent US9526785B2, “Pharmaceuticals for oral delivery” (Enteris BioPharma, Inc., priority 2013, dated 2016)
